Reference: publication PMC6688371, “Effect of the inhaled PDE4 inhibitor CHF6001 on biomarkers of inflammation in COPD” (Respiratory Research, 2019)
Like-named read-outs stand apart in the source and are kept apart here.

Experiment: Sputum concentration of CHF6001
Format: in vivo, human
Conditions: for concentration at 2 h: sputum, mean of all values measured on Days 20, 26 and 32, geometric mean (%CV), read-out: Sputum concentration at 2 h post-dose
Description: The mean changes from baseline to Day 32 for lung function, CAT and TDI were analysed using similar methodology to sputum biomarkers, but were not log-transformed. […] The sputum concentration of CHF6001 was also evaluated at 2 h post-dose, using the mean of all values measured on Days 20, 26 and 32. Pharmacokinetic variables were summarised using geometric means and coefficients of variation, except for Tmax,ss, which is presented as median (range). […]
Only one of the sputum samples induced at 2 h post-dose on Days 20, 26 or 32 was used to evaluate CHF6001 concentration, with the evaluation performed only if a minimum of 300 mg of residual sputum remained. Approximately 30 mg of sputum plug was transferred to a polypropylene cryotube, and was shipped in an upright position at –80C to a central laboratory for analysis. The concentration of CHF6001 was evaluated using a LC-MS/MS method following solid phase extraction. Validation procedures were the same as those listed above for biomarkers. […]
over the calibration range of 30 to 20,000 ng/mL. The precision and accuracy of the method […]
30 ng/mL and within 15% at all other concentrations. No significant matrix effects were […]
temperature (nominally +22C), after storage for 93 days in a freezer set at –80C and after four freeze-thaw cycles at nominally –80C / +22C. The method was considered to be suitable for measuring concentrations of CHF6001 in human sputum samples from […]

In the case of `CS(=O)(=O)Nc1ccc(C(=O)O[C@@H](Cc2c(Cl)c[n+]([O-])cc2Cl)c2ccc(OC(F)F)c(OCC3CC3)c2)cc1OCC1CC1` [CHF6001], the “Sputum concentration in relation to dose” value (2 h post-dose, steady state (after Day 20), 800 vs 1600 μg BID) is reported as “dose-proportionality was observed”, the Kp at 2 h (both sexes, human, sputum relative to plasma, inhaled, 2 h post-dose, steady state) is reported as roughly 2000 and the concentration at 2 h (both sexes, human, 800 μg BID inhaled) is reported as 4900 ng/mL. The concentration at 2 h (both sexes, human, 1600 μg BID inhaled) was 10200 ng/mL.
